Source: article PMC2694132 (Cancer research, 2009)

Assays:
Assay type in all cases: in vitro ADME
[1] = biological target: T1, UGT1A7*2 [UGT1A7p.(Asn129Lys)+(Arg131Lys)] (Homo sapiens, UniProt Q9HAW7, N129K/R131K); assay: SAHA glucuronidation, UGT1A7*2 variant cell homogenate
T1 sequence (Q9HAW7 26-530 N129K/R131K): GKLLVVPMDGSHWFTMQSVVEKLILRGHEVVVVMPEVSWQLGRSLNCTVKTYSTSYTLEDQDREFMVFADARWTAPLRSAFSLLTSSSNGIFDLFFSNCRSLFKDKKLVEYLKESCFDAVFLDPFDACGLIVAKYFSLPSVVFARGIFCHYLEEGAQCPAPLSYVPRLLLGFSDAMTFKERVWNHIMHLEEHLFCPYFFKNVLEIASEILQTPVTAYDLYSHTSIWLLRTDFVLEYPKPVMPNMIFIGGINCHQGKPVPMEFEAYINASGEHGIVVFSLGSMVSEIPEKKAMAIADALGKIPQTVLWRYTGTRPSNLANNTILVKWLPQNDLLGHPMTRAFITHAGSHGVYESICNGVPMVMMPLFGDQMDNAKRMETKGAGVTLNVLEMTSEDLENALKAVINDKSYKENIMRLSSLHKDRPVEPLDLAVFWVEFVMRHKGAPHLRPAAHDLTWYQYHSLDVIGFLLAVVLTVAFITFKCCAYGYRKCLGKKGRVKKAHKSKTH

UGT1A1 = biological target: T2, UGT1A1 (Homo sapiens, UniProt P22309); assay: SAHA glucuronidation screen, UGT1A1-overexpressing cell homogenate
T2 sequence (P22309 26-533): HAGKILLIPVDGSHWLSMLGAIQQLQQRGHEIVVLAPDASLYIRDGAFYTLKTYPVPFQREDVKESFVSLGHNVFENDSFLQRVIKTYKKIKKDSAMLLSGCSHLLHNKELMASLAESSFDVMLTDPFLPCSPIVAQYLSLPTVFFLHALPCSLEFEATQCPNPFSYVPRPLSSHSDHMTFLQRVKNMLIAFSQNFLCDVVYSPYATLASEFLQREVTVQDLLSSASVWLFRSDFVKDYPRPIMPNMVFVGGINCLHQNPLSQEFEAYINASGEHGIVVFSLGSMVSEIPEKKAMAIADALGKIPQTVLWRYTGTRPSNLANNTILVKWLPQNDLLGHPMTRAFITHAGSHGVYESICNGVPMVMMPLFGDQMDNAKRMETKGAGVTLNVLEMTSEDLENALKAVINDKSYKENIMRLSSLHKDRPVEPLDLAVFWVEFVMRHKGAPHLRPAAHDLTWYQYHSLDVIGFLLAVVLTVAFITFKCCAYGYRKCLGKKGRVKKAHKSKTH

UGT1A4 = biological target: T3, UGT1A4 (Homo sapiens, UniProt P22310); assay: SAHA glucuronidation screen, UGT1A4-overexpressing cell homogenate
T3 sequence (P22310 29-534): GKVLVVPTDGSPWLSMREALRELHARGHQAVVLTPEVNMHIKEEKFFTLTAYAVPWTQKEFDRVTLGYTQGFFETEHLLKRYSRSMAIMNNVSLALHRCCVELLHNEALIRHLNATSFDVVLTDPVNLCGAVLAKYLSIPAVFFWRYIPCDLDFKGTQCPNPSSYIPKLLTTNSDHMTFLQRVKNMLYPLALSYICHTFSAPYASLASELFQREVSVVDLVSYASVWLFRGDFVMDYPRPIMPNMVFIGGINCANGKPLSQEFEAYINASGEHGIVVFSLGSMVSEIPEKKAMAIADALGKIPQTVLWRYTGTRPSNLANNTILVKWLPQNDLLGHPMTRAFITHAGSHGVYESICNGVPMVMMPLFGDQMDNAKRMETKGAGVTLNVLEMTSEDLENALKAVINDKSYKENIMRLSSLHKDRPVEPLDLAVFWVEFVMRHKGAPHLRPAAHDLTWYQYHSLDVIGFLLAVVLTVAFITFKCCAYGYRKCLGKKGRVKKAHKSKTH

UGT1A5 = biological target: T4, UGT1A5 (Homo sapiens, UniProt P35504); assay: SAHA glucuronidation screen, UGT1A5-overexpressing cell homogenate; conditions: 400 μg UGT-overexpressing cell homogenate, 1-h incubation
T4 sequence (P35504 29-534): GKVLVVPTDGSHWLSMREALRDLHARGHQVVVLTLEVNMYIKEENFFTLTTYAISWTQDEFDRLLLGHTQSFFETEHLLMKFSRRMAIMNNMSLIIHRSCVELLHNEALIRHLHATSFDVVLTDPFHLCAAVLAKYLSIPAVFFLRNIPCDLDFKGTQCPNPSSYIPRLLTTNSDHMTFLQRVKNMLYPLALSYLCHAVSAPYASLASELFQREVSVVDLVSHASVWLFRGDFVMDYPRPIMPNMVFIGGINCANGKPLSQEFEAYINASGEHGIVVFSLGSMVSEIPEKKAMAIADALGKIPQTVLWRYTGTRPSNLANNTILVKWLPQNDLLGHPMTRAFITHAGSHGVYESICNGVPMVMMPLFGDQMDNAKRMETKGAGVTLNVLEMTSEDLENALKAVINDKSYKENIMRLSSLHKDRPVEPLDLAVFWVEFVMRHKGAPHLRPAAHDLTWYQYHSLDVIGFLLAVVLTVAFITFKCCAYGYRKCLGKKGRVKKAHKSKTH

UGT2B4 = biological target: T5, UGT2B4 (Homo sapiens, UniProt P06133); assay: SAHA glucuronidation screen, UGT2B4-overexpressing cell homogenate; conditions: 400 μg UGT-overexpressing cell homogenate, 1-h incubation
T5 sequence (P06133 24-528): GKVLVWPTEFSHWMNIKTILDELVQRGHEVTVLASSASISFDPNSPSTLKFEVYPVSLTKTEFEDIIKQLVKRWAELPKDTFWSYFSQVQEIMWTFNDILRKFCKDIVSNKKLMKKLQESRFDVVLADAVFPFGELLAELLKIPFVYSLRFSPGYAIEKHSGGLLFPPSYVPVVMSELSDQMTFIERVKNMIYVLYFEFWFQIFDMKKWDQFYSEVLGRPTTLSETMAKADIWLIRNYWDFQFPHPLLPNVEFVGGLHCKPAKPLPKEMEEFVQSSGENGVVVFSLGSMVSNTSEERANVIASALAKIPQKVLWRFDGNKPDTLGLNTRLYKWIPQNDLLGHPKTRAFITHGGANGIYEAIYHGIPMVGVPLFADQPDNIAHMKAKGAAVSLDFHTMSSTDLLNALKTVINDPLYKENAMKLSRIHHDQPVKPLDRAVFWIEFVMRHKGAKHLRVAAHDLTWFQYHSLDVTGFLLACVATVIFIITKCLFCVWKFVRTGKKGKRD

In the case of O=C(CCCCCCC(=O)Nc1ccccc1)NO [SAHA, Suberoylanilide hydroxamic acid], the “difference in glucuronidation activity against SAHA versus wild-type UGT1A7” value ([1]; UGT1A7 variants) is reported as “No significant difference”, the Km at 1 h ([1]; human, pH 7.5) is reported as 2.5 ± 0.3 mM and the Km at 1 h (UGT1A1; human, UGT1A1-overexpressing cell homogenate, pH 7.5) is reported as over 8 mM. The “glucuronidation against SAHA” value (UGT1A1; in vitro, UGT-overexpressing cell homogenate) was “detectable levels of glucuronidation”, the “glucuronidation against SAHA” value (UGT1A4; 400 μg UGT-overexpressing cell homogenate, 1-h incubation) was “detectable levels of glucuronidation” and the Km at 1 h (UGT1A4; human, UGT1A4-overexpressing cell homogenate, pH 7.5) was over 8 mM. The “glucuronidation activity against SAHA (screen)” value (UGT1A5) was “No detectable glucuronidation activity” and the “glucuronidation activity against SAHA (screen)” value (UGT2B4) was “No detectable glucuronidation activity”.
